Results on 9 compounds are retold here after US9283256B2, “Antibacterial composition comprising Salvia extracts” (Botanic Century (Beijing) Co. Ltd., priority 2007, dated 2016).

≈ marks a conversion by molar mass, not a printed value. Like-named read-outs stand apart in the source and are kept apart here.

The test system of one experiment is MRSA 2. Description: MIC and MBC by microtitre well methods, PYN6 versus individual compounds (TEST 2). In kind it is cell-based, Staphylococcus aureus. Particulars: for MIC: microtitre well, growth over 20 hrs, 490 nm; for MBC: subculture onto solid media after 20 hrs. The procedure:
(§1) Minimum Inhibitory and Minimum Bactericidal activities (MIC and MBC) of PYN6 were determined for 2 strains of MRSA using standard microtitre well methods. MICs were determined by measuring growth over 20 hrs using spectroscopy at 490 nm. MBCs were determined by subculture from these microtitre plates onto solid media after 20 hrs and determining survival of bacteria grown in the presence of PYN6.
TEST 2 MIC and MBC comparing PYN6 to A, B, C and D against MRSA 2

For the next experiment, the system named is Staphylococcus aureus. Particulars: filter paper disc, chemicals isolated from Danshen; cited from earlier work.
The subject of another experiment is MRSA 98. Description: MIC and MBC by microtitre well methods, PYN6 versus individual compounds (TEST 1). Format: cell-based, Staphylococcus aureus. On the procedure:
as §1
TEST 1 MIC and MBC comparing PYN6 to A, B, C and D against MRSA 98

The next experiment relates to Escherichia coli. Particulars: dissolved in dimethylformamide (DMF); cited from earlier work.
For experiment [1] the following is noted: dissolved in chloroform; cited from earlier work.
In experiment [2] the test system is Staphylococcus aureus ATCC225923. Particulars: dissolved in dimethylformamide (DMF); cited from earlier work.
For experiment [3], the system named is Bacillus aeruginosus ATCC227853. Particulars: dissolved in dimethylformamide (DMF); cited from earlier work.
In another experiment the test system is Haemolytic streptococcus. Particulars: dissolved in dimethylformamide (DMF); cited from earlier work.
In experiment [4] the test system is clinical isolates of MRSA (T3, 102, MRSA 99). Format: cell-based, Staphylococcus aureus. Particulars: sub-inhibitory sub-culture, 3 week test period.
Description: This experiment was conducted to test for the rapid development of resistance in Staphylococcus aureus in the presence of sub-inhibitory doses of the active extract.
All clinical strains were from The Royal London, St Bartholomew's or Newham hospitals in London. Each strain had been identified as an MRSA.
High concentrations of organisms (10^7cfu/ml^−1) were grown in sub-inhibitory concentrations 0, 2 and 8 mg l^−1 of the active extract.
Organisms were sub-cultured into fresh active extract media at day 4 and again at day 7. MICs were checked weekly using standard methods. Subcultures were carried out in triplicate.
[5] abbreviates: TEST 1, MRSA 98, microtitre well, growth over 20 hrs, 490 nm.
[6] abbreviates: TEST 1, MRSA 98, subculture onto solid media after 20 hrs.
Where [7] appears, read: Staphylococcus aureus, read-out: MIC.
Where [8] appears, read: Staphylococcus aureus, read-out: MBC.
Where [9] appears, read: Staphylococcus aureus, MRSA, 20 h.

What is called MIC is the lowest concentration that inhibits growth of the organism. As a reminder, the MBC is the lowest tested concentration that kills the bacteria rather than only halting them. `Cc1coc2c1C(=O)C(=O)c1c-2ccc2c(C)cccc12` [A, Tashinone 1]: the MIC with MRSA 2 and against MRSA 98 (setting [5]) was 125 µg/mL (≈ 452 µM) in each case. In addition, the MBC is over 500 µg/mL against MRSA 2 and under 500 µg/mL in the experiment with MRSA 98 (setting [6]). In addition, the anti-Staphylococcus aureus activity entry in the experiment with Staphylococcus aureus was “did not show activity”.

`Cc1coc2c1C(=O)C(=O)c1c-2ccc2c1CCCC2(C)C` [B, Tashinone 11A]: the MIC was 125 µg/mL (≈ 425 µM) in the experiment with MRSA 2 (setting [7]); 100 µg/mL (≈ 340 µM) in [2]; 50 µg/mL (≈ 170 µM) in [3]; 121.5 µg/mL (≈ 413 µM) in the experiment with Haemolytic streptococcus; 125 µg/mL (≈ 425 µM) in the experiment on MRSA 98 (Staphylococcus aureus, TEST 1, MRSA 98, microtitre well, growth over 20 hrs, 490 nm, read-out: MIC). Further, the MBC in the experiment on MRSA 2 (setting [8]) is over 500 µg/mL; with MRSA 98 (Staphylococcus aureus, TEST 1, MRSA 98, subculture onto solid media after 20 hrs, read-out: MBC), under 500 µg/mL. The “minimum inhibitory concentration (MIC)” value in the experiment with Escherichia coli is 50 µg/mL (≈ 170 µM). In addition, the anti-microbial activity result in experiment [1] is reported as “did not demonstrate any anti-microbial activity”. In addition, the anti-Staphylococcus aureus activity entry in the experiment on Staphylococcus aureus is given as “did not show activity”.

As for `Cc1cccc2c3c(ccc12)C1=C(C(=O)C3=O)[C@@H](C)CO1` [C, Dyhydrotashinone], the values for the MIC against MRSA 2 and with MRSA 98 (setting [5]) were 1.8 µg/mL (≈ 6.47 µM) and 8 µg/mL (≈ 28.7 µM), respectively. In addition, the MBC with MRSA 2 was 62 µg/mL (≈ 223 µM); in the experiment with MRSA 98 (setting [6]) it was 125 µg/mL (≈ 449 µM). Further, the anti-Staphylococcus aureus activity entry in the experiment on Staphylococcus aureus is “demonstrated anti-Staphylococcus aureus activity”.

In the case of `C[C@H]1COC2=C1C(=O)C(=O)c1c2ccc2c1CCCC2(C)C` [D, Cryptotashinone], the MIC with MRSA 2 (setting [7]) was 7.7 µg/mL (≈ 26 µM); against MRSA 98 (setting [9]), 15 µg/mL (≈ 50.6 µM). In addition, the MBC in the experiment with MRSA 2 (setting [8]) came out at 125 µg/mL (≈ 422 µM); against MRSA 98 (setting [9]), 250 µg/mL (≈ 844 µM).

`Cc1coc2c1C(=O)C(=O)c1c-2ccc2c1CCCC2(C)CO` (stereo not drawn) [Tanshinone IIB]: in the experiment with Escherichia coli, the “minimum inhibitory concentration (MIC)” value was 25 µg/mL (≈ 80.6 µM). In addition, the anti-Staphylococcus aureus activity result in the experiment on Staphylococcus aureus is “demonstrated anti-Staphylococcus aureus activity”. The MIC is 50 µg/mL (≈ 161 µM) in experiment [2], 25 µg/mL (≈ 80.6 µM) in [3] and 25 µg/mL (≈ 80.6 µM) in the experiment on Haemolytic streptococcus.

Regarding Gentamicin, in experiment [4], the development of resistance result was “no development of resistance”.

With neotanshinone A, the anti-Staphylococcus aureus activity entry in the experiment with Staphylococcus aureus is reported as “did not show activity”.

Consider neotanshinone B, for which the anti-Staphylococcus aureus activity entry with Staphylococcus aureus is “did not show activity”.

Turning to neotanshinone C, the anti-Staphylococcus aureus activity result in the experiment on Staphylococcus aureus is recorded as “did not show activity”.
